Assay results published in patent publication US20220008373A1 (priority 2020, published 2022).
Entries after “also recorded” stand apart in the source; their conditions may differ.

System: pseudovirus carrying the Spike protein of SARS-CoV-2
Format: cell-based

CC(C)C[C@H](N[C@@H](Cc1cncn1Cc1cc(Cl)cc(Cl)c1)C(=O)O)C(=O)O [MLN-4760]
inhibition of pseudovirus infection (attachment and entry): No inhibition of viral infection; also recorded: no ability to block the entrance to the pseudovirus

CN1CCN(c2ccc(CNC(=O)c3ccno3)cc2)CC1 [SSAA09E2]
inhibition of pseudovirus infection (attachment and entry): dose-dependent inhibition of pseudovirus infection; also recorded: effective at blocking infection
